The assay concerns P388 leukemia ip, CD2F1 mice, survival T/C. The assay can be described thus: NCI In Vivo Anticancer Drug Screen. Data for tumor model P388 Leukemia (intraperitoneal) in CD2F1 (CDF1) mice. The conditions noted are these: endpoint: median survival time, higher = longer survival. The procedure, abridged: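 Mice carrying the transplanted tumor received test compound or vehicle. Survival was recorded in each group, and the value is the treated-group measurement divided by that of the vehicle-treated control group.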

Setting [1] is: dose: 50.0 mg/kg/injection, schedule: Q01DX009 (ip), vehicle: Klucel (hydroxypropylcellulose) (HPC).
Where [2] appears, read: dose: 100.0 mg/kg/injection, schedule: Q01DX009 (ip), vehicle: Klucel (hydroxypropylcellulose) (HPC).
The mark [3] stands for this setting: dose: 200.0 mg/kg/injection, schedule: Q01DX009 (ip), vehicle: Klucel (hydroxypropylcellulose) (HPC).
[4] abbreviates: dose: 50.0 mg/kg/injection, schedule: Q01DX005 (ip), vehicle: Klucel (hydroxypropylcellulose) (HPC).
[5] abbreviates: dose: 100.0 mg/kg/injection, schedule: Q01DX005 (ip), vehicle: Klucel (hydroxypropylcellulose) (HPC).
Where [6] appears, read: dose: 100.0 mg/kg/injection, schedule: Q04DX003 (ip), vehicle: Klucel (hydroxypropylcellulose) (HPC).
[7] abbreviates: dose: 200.0 mg/kg/injection, schedule: Q04DX003 (ip), vehicle: Klucel (hydroxypropylcellulose) (HPC).
[8] abbreviates: dose: 400.0 mg/kg/injection, schedule: Q04DX003 (ip), vehicle: Klucel (hydroxypropylcellulose) (HPC).
The mark [9] stands for this setting: dose: 25.0 mg/kg/injection, schedule: Q01DX009 (ip), vehicle: saline with Tween-80.
Setting [10] is: dose: 50.0 mg/kg/injection, schedule: Q01DX009 (ip), vehicle: saline with Tween-80.
Setting [11] is: dose: 200.0 mg/kg/injection, schedule: Q01DX005 (ip), vehicle: Klucel (hydroxypropylcellulose) (HPC).
Where [12] appears, read: dose: 200.0 mg/kg/injection, schedule: Q04DX003 (ip), vehicle: saline with Tween-80.

“And” between values parts separate entries of the source, which are not always exact repeats. Identical values can stand only once. Toxic doses and inconclusive results are not listed.

Take `NC1CC2CCCCC2CC1c1ccccc1` (stereo not drawn): the T/C was 91 % of control (dose: 100.0 mg/kg/injection, schedule: Q01DX001 (ip), vehicle: Klucel (hydroxypropylcellulose) (HPC)); 97 % of control (dose: 200.0 mg/kg/injection, schedule: Q01DX001 (ip), vehicle: Klucel (hydroxypropylcellulose) (HPC)); 96 % of control (dose: 400.0 mg/kg/injection, schedule: Q01DX001 (ip), vehicle: Klucel (hydroxypropylcellulose) (HPC)).

With `CCCCCCCCCCCCCCCC(=O)OCC(CO)OC(=O)CCCCCCCCCCCCCCC` (stereo not drawn), the T/C under setting [1] was 91 % of control, the T/C under setting [2] is 87 % of control and the T/C under setting [3] was 89 % of control.

For the compound `O=C1C=C(O)C2CCCCC2N1` (stereo not drawn), the T/C is 99 % of control under setting [4] and 95 % of control under setting [5].

Consider `C=C(C)c1nc(N)nc(NCCCC)n1`, for which the T/C runs as follows: under setting [6], 104 % of control; under setting [7], 100 % of control; under setting [8], 96 % of control.

Turning to `CC1=C(c2ccccc2)CS1(=O)=O`, the T/C is 101 % of control (dose: 100.0 mg/kg/injection, schedule: Q04DX002 (ip), vehicle: saline with Tween-80); 99 % of control (dose: 200.0 mg/kg/injection, schedule: Q04DX002 (ip), vehicle: saline with Tween-80); 110 % of control (dose: 400.0 mg/kg/injection, schedule: Q04DX002 (ip), vehicle: saline with Tween-80).

Take `CCc1ccc(NC(=O)NC(=O)c2c(F)cccc2F)cc1`: the T/C under setting [9] is 114 % of control; the T/C (dose: 25.0 mg/kg/injection, schedule: Q01DX009 (ip), vehicle: saline) is 106 % of control; the T/C under setting [10] was 106 % of control and 116 % of control; the T/C (dose: 50.0 mg/kg/injection, schedule: Q01DX009 (ip), vehicle: saline) was 103 % of control and 115 % of control; the T/C (dose: 100.0 mg/kg/injection, schedule: Q01DX009 (ip), vehicle: saline with Tween-80) is 100 % of control and 120 % of control; the T/C (dose: 100.0 mg/kg/injection, schedule: Q01DX009 (ip), vehicle: saline) was 101 % of control and 98 % of control. The T/C reads like this: (dose: 200.0 mg/kg/injection, schedule: Q01DX009 (ip), vehicle: saline with Tween-80) 120 % of control and 97 % of control; (dose: 200.0 mg/kg/injection, schedule: Q01DX009 (ip), vehicle: saline) 100 % of control and 103 % of control.

`COC(=O)CC1(C(=O)OC)C2=C(CCC2)N2CCCC21` (stereo not drawn): the T/C runs as follows: (dose: 12.5 mg/kg/injection, schedule: Q01DX009 (ip), vehicle: Klucel (hydroxypropylcellulose) (HPC)) 101 % of control; (dose: 25.0 mg/kg/injection, schedule: Q01DX009 (ip), vehicle: Klucel (hydroxypropylcellulose) (HPC)) 103 % of control; under setting [1], 97 % of control; under setting [2], 93 % of control.

With `Clc1ccc(C[n+]2ccccc2)cc1Cl`, the T/C (dose: 5.0 mg/kg/injection, schedule: Q04DX003 (ip), vehicle: saline) is 120 % of control; the T/C (dose: 10.0 mg/kg/injection, schedule: Q04DX003 (ip), vehicle: saline) was 110 % of control; the T/C (dose: 20.0 mg/kg/injection, schedule: Q04DX003 (ip), vehicle: saline) is 110 % of control.

For `O=c1[nH]nc(-c2ccc(Cl)cc2)c2cc(Cl)c(Cl)cc12`, the T/C is, setting by setting: (dose: 3.12 mg/kg/injection, schedule: Q04DX002 (ip), vehicle: distilled water + Tween-80) 90 % of control; (dose: 6.25 mg/kg/injection, schedule: Q04DX002 (ip), vehicle: distilled water + Tween-80) 96 % of control; (dose: 12.5 mg/kg/injection, schedule: Q04DX002 (ip), vehicle: distilled water + Tween-80) 93 % of control; (dose: 25.0 mg/kg/injection, schedule: Q04DX002 (ip), vehicle: distilled water + Tween-80) 93 % of control; (dose: 50.0 mg/kg/injection, schedule: Q04DX002 (ip), vehicle: distilled water + Tween-80) 90 % of control; (dose: 100.0 mg/kg/injection, schedule: Q04DX002 (ip), vehicle: distilled water + Tween-80) 95 % of control. Besides, the T/C (dose: 200.0 mg/kg/injection, schedule: Q04DX002 (ip), vehicle: distilled water + Tween-80) is 102 % of control.

Regarding `Nc1ccc(-c2cc3ccc(C4=NCCN4)cc3[nH]2)cc1`, the T/C (dose: 60.0 mg/kg/injection, schedule: Q01DX005 (ip), vehicle: Klucel (hydroxypropylcellulose) (HPC)) is 117 % of control.

In the case of `Cc1c(Cc2ccccc2)[n+](=O)c2ccccc2n1[O-]`, the T/C is, setting by setting: under setting [4], 92 % of control; under setting [5], 95 % of control; under setting [6], 100 % of control; (dose: 100.0 mg/kg/injection, schedule: Q04DX003 (ip), vehicle: saline with Tween-80) 101 % of control; under setting [11], 99 % of control; under setting [7], 98 % of control. For the same compound, the T/C by setting is: under setting [12], 110 % of control; (dose: 400.0 mg/kg/injection, schedule: Q01DX005 (ip), vehicle: Klucel (hydroxypropylcellulose) (HPC)) 94 % of control; under setting [8], 104 % of control; (dose: 400.0 mg/kg/injection, schedule: Q04DX003 (ip), vehicle: saline with Tween-80) 118 % of control.

On to `CCOC(=O)/C(C=NCC(C)(CN=C/C(C(=O)OCC)=C(/C)O)CN=C/C(C(=O)OCC)=C(/C)O)=C(\C)O` (stereo not drawn), for which the T/C runs as follows: under setting [1], 93 % of control; under setting [2], 90 % of control; under setting [3], 87 % of control.

For the compound `CN(C)c1ccc(N=C2C=CC(=O)C(Cl)=C2)cc1`, the T/C was 106 % of control (dose: 25.0 mg/kg/injection, schedule: Q01DX009 (ip), vehicle: suspension in saline) and 115 % of control (dose: 50.0 mg/kg/injection, schedule: Q01DX009 (ip), vehicle: suspension in saline).

Consider `C=CC(=NC(C)(C)C)Nc1ccccc1`, for which the T/C reads like this: (dose: 6.25 mg/kg/injection, schedule: Q01DX009 (ip), vehicle: saline with Tween-80) 101 % of control; (dose: 12.5 mg/kg/injection, schedule: Q01DX009 (ip), vehicle: saline with Tween-80) 105 % of control; under setting [9], 108 % of control.

In the case of `COc1c(OC)c(OC)c(-c2cc(=O)c3c(OC)c(OC)c(OC)c(OC)c3o2)c(OC)c1OC`, the T/C is 94 % of control under setting [4], 88 % of control under setting [5] and 91 % of control under setting [11].

In the case of `CNc1nc2cc(OC)c(OC)cc2c(=O)[nH]1`, the T/C was 98 % of control (dose: 15.0 mg/kg/injection, schedule: Q01DX005 (ip), vehicle: saline with Tween-80); 94 % of control (dose: 30.0 mg/kg/injection, schedule: Q01DX005 (ip), vehicle: saline with Tween-80); 91 % of control and 98 % of control (dose: 60.0 mg/kg/injection, schedule: Q01DX005 (ip), vehicle: saline with Tween-80); 100 % of control (dose: 120.0 mg/kg/injection, schedule: Q01DX005 (ip), vehicle: saline with Tween-80).

Consider `CCCC(=O)OCC1OC(n2cnc3c(=S)nc(N)[nH]c32)C(OC(=O)CCC)C1OC(=O)CCC` (stereo not drawn), for which the T/C by setting is: (dose: 1.25 mg/kg/injection, schedule: Q04DX003 (ip), vehicle: saline with Tween-80) 100 % of control; (dose: 2.5 mg/kg/injection, schedule: Q04DX003 (ip), vehicle: saline with Tween-80) 104 % of control; (dose: 5.0 mg/kg/injection, schedule: Q04DX003 (ip), vehicle: saline with Tween-80) 113 % of control; (dose: 10.0 mg/kg/injection, schedule: Q04DX003 (ip), vehicle: saline with Tween-80) 155 % of control; (dose: 20.0 mg/kg/injection, schedule: Q04DX003 (ip), vehicle: saline with Tween-80) 165 % of control; under setting [9], 122 % of control. In addition, the T/C by setting is: (dose: 25.0 mg/kg/injection, schedule: Q04DX003 (ip), vehicle: saline with Tween-80) 150 % of control; under setting [10], 90 % of control; (dose: 50.0 mg/kg/injection, schedule: Q04DX003 (ip), vehicle: saline with Tween-80) 116 % of control; under setting [12], 118 % of control.

For `Cc1cc2c(cc1C)NC1C(=O)C(c3cccc([N+](=O)[O-])c3)OC1=N2` (stereo not drawn), the T/C under setting [4] is 111 % of control, the T/C under setting [5] was 90 % of control and the T/C under setting [11] was 87 % of control.

As for `Nc1nc(N)c(Cc2ccncc2)cc1Cc1ccncc1`, the T/C under setting [4] was 112 % of control, the T/C under setting [5] is 101 % of control and the T/C under setting [11] was 111 % of control.

For the origin of these results see PubChem BioAssay AID330 (DTP/NCI, 2004).
